# Experiments:
# [1] = test system: feline GPRC6A; assay: fGPRC6A calcium assay in HEK-293 T-REx/natClytin cells (FLIPR Tetra, Fluo-4 AM fluorescence); type: cell-based; conditions: for Activation of the fGPRC6A receptor (intracellular calcium response): ligand alone, K2.3 clone, doxycycline-induced, Fluo-4 AM read-out
# Procedure: The HEK-293 […] cell line was stably transfected by electroporation. Briefly, 3×10^6 cells detached from 60% confluent flasks were transfected with 10 μg of DNA construct by using the Gene Pulser II electroporator (Biorad) (parameters: 300 Volts, 950 μF). […] Tetra system was used to measure fluorescence or luminescence. HEK293 cells that transiently or stably expressed the […] taste receptor, were exposed to compounds to determine whether the compounds modulated the activity of the […] receptor. In particular, […] cell line was used as recipient cell line and stable transfections were carried out using an inducible expression construct encoding for the feline GPRC6A in combination with the chimeric Ga protein Gaq[…]. Stable pools underwent a first limiting dilution (LD) and the best clones were chosen after stimulation with the reference ligand L-Arg+20 mM Mg^2+, using both a fluorescent and a luminescent read-out. Four selected first LD clones were subjected to a second round of LD; CPA was then performed in order to choose the best performing clones. On the basis of the functional data obtained at FLIPR® Tetra, the final K2.3 clone was chosen for the subsequent optimization steps. Fluorescence (Fluo-4 AM dye) was chosen as best read-out given its higher sensitivity in comparison to luminescence. In particular, cells were seeded at 7,500 cells/well and tested 48 h after seeding (Doxycycline was added at 1 μg/mL 24 h after seeding). Then, medium was removed, and cells were incubated with Fluo-4 AM dye (20 μL/well) for 1 h at 37° C. […]
# [2] = test system: cats; assay: Cat feeding test (2-bottle choice test); type: in vivo; conditions: 0.15 mM L-ornithine hydrochloride in water vs plain water; 24 cats; 36 hours testing time
# Procedure: Cats were allowed access to water containing 0.15 mM L-ornithine hydrochloride and to plain water. The methodology used a 2-bottle choice test with 24 cats (the final number of cats for each test can vary due to data being discarded by spillage, etc.). Cats were housed individually during trial periods and had free access to water available between testing periods. The test involved a choice test between the tastant/mixture at a given concentration dissolved in deionized water versus deionized water only or another tastant/mixture. Control was made for positional bias (e.g., A/B exposure 1 and B/A exposure 2) and evaporation loss. The testing time was 36 hours (i.e., 18 hours per day, allowing a two-day crossover). Following two consecutive days of each testing, cats had two consecutive days of rest. Cats were offered a dry diet as a single meal at the start of the test period for one hour, calculated to meet the individual requirements for each cat.
Structure (SMILES),"Modulation of the response to the tested L-alpha-amino acids ([1]; 20 mM Mg2+ together with L-Arginine, L-Ornithine or L-Lysine)",Activation of the fGPRC6A receptor (intracellular calcium response) [1],Average difference in intake versus plain water [2]
[Mg+2] [magnesium ion],positive allosteric modulator,not activated,–
"Cl.NCCC[C@H](N)C(=O)O [L-ornithine, L-ornithine hydrochloride]",–,–,15.28 g
COc1cccc([C@@H](C)NCCCc2ccccc2Cl)c1 [NPS R-568],–,not functional,–

# Source: patent publication US12161136B2, “Screening methods using GPRC6A taste receptors and pet food products and compositions prepared using the same” (MARS, INCORPORATED, priority 2018, dated 2024)
